Data published in patent US20250099420A1, “SMALL MOLECULE MODULATORS OF GPR139 COMPLEX” (University of Florida Research Foundation, Incorporated, priority 2022, published 2025).

What was measured:
parental HEK cells = assay: HEK parental Antagonist Counterscreen Assay (non-transfected cells, acetylcholine control); format: cell-based
GPR139 [1] = target: T1, GPR139 (Homo sapiens, UniProt Q6DWJ6)
T1 sequence (Q6DWJ6 1-353): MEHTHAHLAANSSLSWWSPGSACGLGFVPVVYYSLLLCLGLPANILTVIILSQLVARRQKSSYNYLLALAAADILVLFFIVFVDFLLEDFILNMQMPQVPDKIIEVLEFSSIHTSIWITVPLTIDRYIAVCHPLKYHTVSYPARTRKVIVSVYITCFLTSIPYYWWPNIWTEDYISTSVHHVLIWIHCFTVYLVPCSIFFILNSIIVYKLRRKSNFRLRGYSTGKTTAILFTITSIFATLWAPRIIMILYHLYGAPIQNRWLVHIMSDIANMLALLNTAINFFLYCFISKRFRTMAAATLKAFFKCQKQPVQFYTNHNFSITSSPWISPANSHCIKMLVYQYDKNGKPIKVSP
Protocol: (§1) GPR activity was assessed using a calcium detection assay. GPR139 agonists stimulate an increase in intracellular calcium in HEK-GPR139 cells. Agonists increase the release of intracellular calcium, while antagonists decrease the release of intracellular calcium, as compared to an EC80 stimulation of the know agonist S-JNJ-63533054. The positive control for the agonist mode was cells treated with EC100 of known agonist S-JNJ-63533054. Negative control samples were treated with DMSO. The antagonist high control in cells was EC80 of S-JNJ-63533054+IC100 S-JNJ-3792165, while cells were treated with EC80 of S-JNJ-63533054+DMSO for the low control. Intracellular calcium was measured using Calcium 5.
(§2) HEK cells were transfected the DNA encoding GPR139 and incubated for 24 hours. 3000 cells/well in 3 μL HEPES and 1% DMSO were seeded into 1536-well plates. 3 μL Calcium 5 was then added to each well and cells were incubated for 60 min. at 37° C. in 5% CO2 and 95% relative humidity. Cells were pretreated with 50 nL DMSO (5 min. at room temperature in the dark) to stabilize response and desensitize cells to DMSO. A 5 second basal read was recorded and compounds in 30 nL were added to the cells, followed by a 150 second read.
(§3) B. Antagonist Mode: The “High Control” represented wells containing cells with GPR139+Antagonist IC100+Agonist EC80. “Low Control” represented wells containing cells with GPR139 with EC100 Agonist. “0% control” and sample field represented wells containing cells with GPR139 with EC80 Agonist with DMSO or compounds. The Z′ and S:B for this assay were calculated using the High Control and Low Control wells.
(§4) The HEK parental counterscreen utilized the same cells but not transfected with the plasmid. Acetylcholine was used in place of GPR139 agonist as the control compound. The cells were plated overnight, similar to the HEK antagonist counterscreen protocol.
(§5) The GPR139 Agonist and Antagonist titration assays employed the same reagents, protocols, and detection systems as the primary assays, but tested each as 10 point dose response starting at 676 nM concentration in triplicate with 1:3 dilutions. The HEK parental counterscreens utilized the same cells but not transfected with the plasmid. Acetylcholine was used in place of GPR139 agonist as the control compound. The cells were plated overnight, similar to the HEK antagonist counterscreen protocol.
(§6) For each test compound, percent activation was plotted against compound concentration. A four parameter equation describing a sigmoidal dose-response curve was then fitted with adjustable baseline using Assay Explorer software (Symyx Technologies Inc.).

GPR139 [2] = target: T1, GPR139; assay: GPR139 Agonist titration / agonist counterscreen assay (calcium detection, HEK-GPR139 cells); format: cell-based; set-up: expressed in transfected cells; host or cells: HEK Aequorin cells, Maxcyte transient transfection; details: agonist counterscreen of the antagonists; for EC50: scientific notation, molarity, read-out: GRP139 Agonist activity EC50
Protocol: GPR activity was assessed using a calcium detection assay. […] Negative control samples were treated with DMSO. […] Intracellular calcium was measured using Calcium 5.

GPR139 [3] = target: T1, GPR139; assay: GPR139 Antagonist titration assay (calcium detection, HEK-GPR139 cells, vs EC80 of S-JNJ-63533054); details: for GPR139 Antagonist Activity Averaged Max % Response (±St. Dev.): activity relative to known control; for GPR139 Antagonist Activity Hill Slope: fitted dose-response curve
Protocol: as §1, §2, §3, §4, §5, §6

SMILES: COc1ccc(-n2cc(-c3ccccc3)nc2SCC(=O)Nc2ccccc2C)cc1 [SR-01000555409]
- HEK antagonist activity Averaged Max % Response (±St. Dev.) (parental HEK cells): 31.02 ± 1.30%
- GPR139 Antagonist Activity Lipophilic Efficiency (logD) (GPR139 [1]): −708.8E−3
- GPR139 Antagonist Activity Lipophilic Efficiency (logP) (GPR139 [1]): −708.9E−3
- GRP139 Agonist activity Averaged Max % Response (±St. Dev.) (GPR139 [2]): −4.8E+0 ± 5.84 ^ %
- EC50 (GPR139 [2]): > 13.6 µM
- GPR139 Antagonist Activity Ligand Efficiency (GPR139 [3]): 0.24
- GPR139 Antagonist Activity Averaged Max % Response (±St. Dev.) (GPR139 [3]): 86.26 ± 1.14%
- GPR139 Antagonist Activity Hill Slope (GPR139 [3]): 0.79

SMILES: COc1ccccc1-n1cc(-c2ccccc2)nc1SCC(=O)Nc1cccc(C)c1C [SR-01000555431]
- HEK antagonist activity Averaged Max % Response (±St. Dev.) (parental HEK cells): 3.15 ± 12.32%
- GPR139 Antagonist Activity Lipophilic Efficiency (logD) (GPR139 [1]): −548.5E−3
- GPR139 Antagonist Activity Lipophilic Efficiency (logP) (GPR139 [1]): −548.6E−3
- GRP139 Agonist activity Averaged Max % Response (±St. Dev.) (GPR139 [2]): 12.88 ± 6.35%
- EC50 (GPR139 [2]): > 13.2 µM
- GPR139 Antagonist Activity Ligand Efficiency (GPR139 [3]): 0.26
- GPR139 Antagonist Activity Averaged Max % Response (±St. Dev.) (GPR139 [3]): 78.69 ± 5.10%
- GPR139 Antagonist Activity Hill Slope (GPR139 [3]): 0.44

SMILES: Cc1ccc(-c2cn(-c3ccccc3)c(SCC(=O)Nc3ccccc3C)n2)cc1 [SR-01000555444]
- HEK antagonist activity Averaged Max % Response (±St. Dev.) (parental HEK cells): 6.69 ± 8.37%
- GPR139 Antagonist Activity Lipophilic Efficiency (logD) (GPR139 [1]): −1.5E+0
- GPR139 Antagonist Activity Lipophilic Efficiency (logP) (GPR139 [1]): −1.5E+0
- GRP139 Agonist activity Averaged Max % Response (±St. Dev.) (GPR139 [2]): 4.27 ± 6.30%
- EC50 (GPR139 [2]): > 11 µM
- GPR139 Antagonist Activity Ligand Efficiency (GPR139 [3]): 0.24
- GPR139 Antagonist Activity Averaged Max % Response (±St. Dev.) (GPR139 [3]): 69.32 ± 5.67%
- GPR139 Antagonist Activity Hill Slope (GPR139 [3]): 1.62

SMILES: Cc1ccc(-n2cc(-c3ccccc3)nc2SCC(=O)Nc2ccccc2)cc1 [SR-01000555455]
- HEK antagonist activity Averaged Max % Response (±St. Dev.) (parental HEK cells): 6.61 ± 6.46%
- GPR139 Antagonist Activity Lipophilic Efficiency (logD) (GPR139 [1]): −1.3E+0
- GPR139 Antagonist Activity Lipophilic Efficiency (logP) (GPR139 [1]): −1.3E+0
- GRP139 Agonist activity Averaged Max % Response (±St. Dev.) (GPR139 [2]): 2.28 ± 5.10%
- EC50 (GPR139 [2]): > 13.3 µM
- GPR139 Antagonist Activity Ligand Efficiency (GPR139 [3]): 0.24
- GPR139 Antagonist Activity Averaged Max % Response (±St. Dev.) (GPR139 [3]): 52.97 ± 3.58%
- GPR139 Antagonist Activity Hill Slope (GPR139 [3]): 0.71

SMILES: Cc1ccc(-n2cc(-c3ccccc3)nc2SCC(=O)Nc2cccc(C)c2C)cc1 [SR-01000555460]
- HEK antagonist activity Averaged Max % Response (±St. Dev.) (parental HEK cells): 8.34 ± 10.04%
- GPR139 Antagonist Activity Lipophilic Efficiency (logD) (GPR139 [1]): −1.9E+0
- GPR139 Antagonist Activity Lipophilic Efficiency (logP) (GPR139 [1]): −1.9E+0
- GRP139 Agonist activity Averaged Max % Response (±St. Dev.) (GPR139 [2]): 7.97 ± 3.98%
- EC50 (GPR139 [2]): > 11.9 µM
- GPR139 Antagonist Activity Ligand Efficiency (GPR139 [3]): 0.24
- GPR139 Antagonist Activity Averaged Max % Response (±St. Dev.) (GPR139 [3]): 69.58 ± 6.90%
- GPR139 Antagonist Activity Hill Slope (GPR139 [3]): 1.30

SMILES: Cc1ccc(-n2cc(-c3ccccc3)nc2SCC(=O)Nc2ccc(F)cc2)cc1 [SR-01000555461]
- HEK antagonist activity Averaged Max % Response (±St. Dev.) (parental HEK cells): 0.37 ± 8.79%
- GPR139 Antagonist Activity Lipophilic Efficiency (logD) (GPR139 [1]): −954.3E−3
- GPR139 Antagonist Activity Lipophilic Efficiency (logP) (GPR139 [1]): −954.4E−3
- GRP139 Agonist activity Averaged Max % Response (±St. Dev.) (GPR139 [2]): 5.29 ± 2.24%
- EC50 (GPR139 [2]): > 14 µM
- GPR139 Antagonist Activity Ligand Efficiency (GPR139 [3]): 0.25
- GPR139 Antagonist Activity Averaged Max % Response (±St. Dev.) (GPR139 [3]): 77.29 ± 7.71%
- GPR139 Antagonist Activity Hill Slope (GPR139 [3]): 1.40

SMILES: Cc1cccc(-n2cc(-c3ccccc3)nc2SCC(=O)Nc2ccccc2C)c1 [SR-01000555475]
- HEK antagonist activity Averaged Max % Response (±St. Dev.) (parental HEK cells): 9.07 ± 0.74%
- GPR139 Antagonist Activity Lipophilic Efficiency (logD) (GPR139 [1]): −768.6E−3
- GPR139 Antagonist Activity Lipophilic Efficiency (logP) (GPR139 [1]): −768.8E−3
- GRP139 Agonist activity Averaged Max % Response (±St. Dev.) (GPR139 [2]): 13.90 ± 4.27%
- EC50 (GPR139 [2]): > 13.2 µM
- GPR139 Antagonist Activity Ligand Efficiency (GPR139 [3]): 0.28
- GPR139 Antagonist Activity Averaged Max % Response (±St. Dev.) (GPR139 [3]): 90.42 ± 3.10%
- GPR139 Antagonist Activity Hill Slope (GPR139 [3]): 0.57

SMILES: Cc1ccc(CNC(=O)CSc2nc3ccsc3c(=O)n2NC(=O)c2cccc(Br)c2)cc1 [SR-01000564946]
- HEK antagonist activity Averaged Max % Response (±St. Dev.) (parental HEK cells): 30.88 ± 11.77%
- GPR139 Antagonist Activity Lipophilic Efficiency (logD) (GPR139 [1]): 0.81
- GPR139 Antagonist Activity Lipophilic Efficiency (logP) (GPR139 [1]): 0.81
- GRP139 Agonist activity Averaged Max % Response (±St. Dev.) (GPR139 [2]): 1.62 ± 7.06%
- EC50 (GPR139 [2]): > 12.1 µM
- GPR139 Antagonist Activity Ligand Efficiency (GPR139 [3]): 0.24
- GPR139 Antagonist Activity Averaged Max % Response (±St. Dev.) (GPR139 [3]): 86.39 ± 3.49%
- GPR139 Antagonist Activity Hill Slope (GPR139 [3]): 0.71

SMILES: O=C(NCCCN1CCCC1=O)c1ccc(NCc2ccc(F)cc2)c(S(=O)(=O)Nc2cccc(C(F)(F)F)c2)c1 [SR-01000575726]
- HEK antagonist activity Averaged Max % Response (±St. Dev.) (parental HEK cells): 42.61 ± 24.54%
- GPR139 Antagonist Activity Lipophilic Efficiency (logD) (GPR139 [1]): 2.05
- GPR139 Antagonist Activity Lipophilic Efficiency (logP) (GPR139 [1]): 1.85
- GRP139 Agonist activity Averaged Max % Response (±St. Dev.) (GPR139 [2]): 4.26 ± 2.46%
- EC50 (GPR139 [2]): > 13.9 µM
- GPR139 Antagonist Activity Ligand Efficiency (GPR139 [3]): 0.18
- GPR139 Antagonist Activity Averaged Max % Response (±St. Dev.) (GPR139 [3]): 68.96 ± 6.17%
- GPR139 Antagonist Activity Hill Slope (GPR139 [3]): 0.63

SMILES: CCc1ccccc1NC(=O)CSc1nnc(-c2ccccc2)c(-c2ccccc2)n1 [SR-01000581835]
- HEK antagonist activity Averaged Max % Response (±St. Dev.) (parental HEK cells): 8.20 ± 4.35%
- GPR139 Antagonist Activity Lipophilic Efficiency (logD) (GPR139 [1]): −850.1E−3
- GPR139 Antagonist Activity Lipophilic Efficiency (logP) (GPR139 [1]): −850.1E−3
- GRP139 Agonist activity Averaged Max % Response (±St. Dev.) (GPR139 [2]): 9.47 ± 9.31%
- EC50 (GPR139 [2]): > 12.1 µM
- GPR139 Antagonist Activity Ligand Efficiency (GPR139 [3]): 0.23
- GPR139 Antagonist Activity Averaged Max % Response (±St. Dev.) (GPR139 [3]): 81.12 ± 9.72%
- GPR139 Antagonist Activity Hill Slope (GPR139 [3]): 0.67

SMILES: COc1ccc(C2=NN(C3CCCCCC3)C(=O)[C@@H]3CC=CC[C@@H]23)cc1OCCCCOc1ccc(-c2nn[nH]n2)cc1 [SR-05000022540]
- HEK antagonist activity Averaged Max % Response (±St. Dev.) (parental HEK cells): 6.21 ± 10.10%
- GPR139 Antagonist Activity Lipophilic Efficiency (logD) (GPR139 [1]): −546.E−3
- GPR139 Antagonist Activity Lipophilic Efficiency (logP) (GPR139 [1]): −780.8E−3
- GRP139 Agonist activity Averaged Max % Response (±St. Dev.) (GPR139 [2]): 96.44 ± 1.50%
- GRP139 Agonist activity Hill Slope (GPR139 [2]): 10.54
- EC50 (GPR139 [2]): 13.2 µM
- GPR139 Antagonist Activity Ligand Efficiency (GPR139 [3]): 0.18
- GPR139 Antagonist Activity Averaged Max % Response (±St. Dev.) (GPR139 [3]): 94.71 ± 3.14%
- GPR139 Antagonist Activity Hill Slope (GPR139 [3]): 0.39
